# In patent publication US10196356B2, “Mixed disulfide conjugates of thienopyridine compounds and uses thereof” (The Regents of the University of Michigan, priority 2013, dated 2019):
# Read-outs that look alike come from different tables or passages of the source.
# Tests used:
# [1] = tested on: platelets (P2Y12 receptor); assay: Ex vivo anti-platelet activity of the mixed disulfide conjugates (ADP-induced aggregation, aggregometer); format: cell-based, New Zealand white rabbits; conditions: free GSH 1 mM in PRP; 10 μM ADP
# Experimental: The mixed disulfide conjugates were prepared and purified from the reaction mixtures in the presence of 0.3 mM CPT and NPT, along with three control samples containing either 1 mM GSH, no thiol reductant or no G6PD. All samples were re-suspended in 0.5 ml PPP, some of which were treated to 1 mM GSH to release the AM. Platelet aggregation was initiated by the addition of 10 μM ADP and recorded with an aggregometer. The percentage of aggregation was normalized to that of PRP and averaged over four separate measurements. For details, see Materials and Methods. Legend: PRP, untreated platelet-rich plasma; GSH, 1 mM GSH in PRP; −G6PD, metabolites produced in the absence of G6PD; —SH, metabolites produced in the absence of any thiol reductants; GSH, metabolites produced in the presence of 1 mM GSH; CPT, metabolites produced in the presence of 0.3 mM CPT; CPT+GSH, metabolites produced in the presence of 0.3 mM CPT and then treated with 1 mM GSH; NPT, metabolites produced in the presence of 0.3 mM NPT; NPT+GSH, metabolites produced in the presence of 0.3 mM NPT and then treated with 1 mM GSH.
# In order to generate sufficient quantities of the mixed disulfide conjugates, the metabolism of 2-oxoclopidogrel was performed in 2-ml reaction mixtures containing 1 mg/ml HLM, 0.1 mM 2-oxoclopidogrel, the NADPH-regenerating system, and 0.3 mM CPT or NPT or 1 mM GSH. The reaction was initiated by the addition of 10 units G6PD and incubated at 37° C. for 50 min. Two control samples were prepared in parallel. […] After an incubation of 50 min, the reaction mixtures were centrifuged at 13,000×g to remove the HLMs. The supernatants were loaded onto SPE C18 cartridges to enrich the mixed disulfide conjugates. After extensive washing with water to remove salts and other water-soluble metabolites, the conjugate samples were eluted with 2 ml of methanol. The methanolic fractions were dried using a Speedvac concentrator and the dried samples were then re-suspended in 1 ml of platelet-poor plasma (PPP). Prior to the anti-platelet activity assays, the re-suspended conjugates were divided into two equal volumes (0.5 ml each), one of which was treated with 1 mM GSH at 37° C. for 30 min to generate the AM. Both samples were then placed on ice until use.
# The procedures used to determine ex vivo anti-platelet activity were previously reported (see, e.g., Abell L M and Liu E C (2011) J Pharm Exp Ther 339(2):589-596).
# Male New Zealand white rabbits (2.2-2.9 kg) were used as blood donors. Whole blood was drawn from a central ear artery into a plastic syringe containing 3.7% sodium citrate as the anticoagulant (1:10 volume ratio of citrate to blood). A whole blood cell count was determined with a Medonic CA620 hematology analyzer (Clinical Diagnostic Solutions, Inc., Plantation, Fla., USA). Platelet-rich plasma (PRP), the supernatant present after centrifugation of whole blood at 100×g for 10 min, was diluted with PPP to achieve a platelet count of approximately 300,000/μl. Platelet-poor plasma was prepared by centrifuging the remaining blood at 1,500×g for 10 min and discarding the bottom cellular layer. The diluted PRP was divided into 0.5 ml samples, centrifuged again at 170×g for 10 mins, and the resulting supernatant was discarded. The platelet pellets were re-suspended in platelet-poor plasma containing the various chemical inhibitors prepared as described previously and incubated with gentle shaking at 37° C. for 60 min to modify the P2Y12 receptor. Ex vivo platelet aggregation was assessed by established nephelometric methods with the use of a 4-channel aggregometer (BioData PAP-4; BioData Corp., Horsham, Pa., USA) by recording the increase in light transmission through a stirred suspension of PRP maintained at 37° C. Platelet aggregation was induced with ADP (10 μM). A subaggregatory concentration of epinephrine (550 nM) was used to prime the platelets before addition of the agonist.
# [2] = read-out: Km for GSH; previously reported (Zhang 2012); cited from earlier work
# [3] = Rate of formation of the AM from 2-oxoclopidogrel by HLMs in the presence of various thiol reductants; format: in vitro ADME, human; conditions: 0.3 mM thiol reductant; HLM, 0.1 mM 2-oxoclopidogrel
# Experimental: The AM was produced in 0.1 ml of 50 mM KP buffer (pH 7.4) containing 0.2 mg/ml HLM, 0.1 mM 2-oxoclopidogrel, the NADPH-regenerating system, and the thiol reductants. The concentrations of the thiol reductants were 1 mM except for CPT, DFT and NPT which were 0.3 mM each. The reaction was initiated by the addition of 5 units of G6PD and incubated at 37° C. for 20 min. The active metabolite was then quantitated as the MP derivative as described in Materials and Methods. The reported rates were averaged over three separate measurements.
# To examine the effects of various thiol reductants on the formation of the active metabolite (AM), the rates at which the AM was produced were determined. Production of the AM was performed in 0.1 ml of 50 mM potassium phosphate (KPi) buffer (pH 7.4) containing 0.2 mg/mL HLM, 0.1 mM 2-oxoclopidogrel, the NADPH-regenerating system, and 1 mM of each of the thiol reductants except that 0.3 mM CPT, DFT, or NPT were used. The reaction was initiated by the addition of 5 units of glucose-6-phosphate dehydrogenase (G6PD) and incubated at 37° C. for 20 min. The AM was then derivatized with 4 mM MPB at room temperature for 10 min, followed by acidification with acetic acid to 3% (v/v). For quantification, 50 pmoles of (S)-clopidogrel was added into each reaction mixture as internal standard (IS). The derivatized AM (AM-MP) was quantitated using LC-MS/MS.
# The MS analyses of the reaction mixture were performed on an ion-trap mass spectrometer (LCQ DecaXP, Thermo Fisher Scientific, Waltham, Mass.) as reported previously (Zhang et al., 2012). In brief, the metabolites of 2-oxoclopidogrel were separated on a reverse phase C18 column (2×100 mm, 3 μm, Phenemonex, Calif.) using a binary mobile phase at a flow rate of 0.2 ml/min. The temperature of the C18 column was maintained at 40° C. using a column heater (Restek Corporation, Lancaster, Pa.). […] Transitions from m/z 504→m/z 354 for the AM-MP and from m/z 322→m/z 212 for the IS were used to quantitate the amount of the AM-MP based on a calibration curve consisting of various concentrations of cis-clopidogrel-MP.
# [4] = Formation of mixed disulfide conjugates of clopidogrel by HLMs (Km of thiol); format: in vitro ADME, human; conditions: 2-oxoclopidogrel, read-out: Km for the formation of the mixed disulfide conjugate
# Experimental: The mixed disulfide conjugates were produced by HLMs for both structural and semi-quantitative analyses. Metabolism of 2-oxoclopidogrel was performed in 0.2 ml of 50 mM KP buffer (pH 7.4) as described above except that the concentration of HLMs was increased to 1 mg/ml. The reaction was incubated at 37° C. for 30 min and then quenched by the addition of 0.1 ml of 10% of acetic acid in acetonitrile. The quenched samples were centrifuged at 13,000×g for 10 min to remove the HLMs. Aliquots of 50 μl of the supernatant were loaded onto a mass spectrometer to analyze both the active and conjugate metabolites.
# The MS analyses were performed as described above except that the MS detector was operated in the dependent scan mode. The precursor ions were scanned from m/z 300-700, whereas the MS^2 spectra were obtained from m/z 100 to 700 for the four most abundant ions. For semi-quantitative analysis, 50 pmoles of the IS was spiked into each sample that had been quenched. The relative amounts of the AM and respective conjugates were calculated as the AUC ratios of the metabolites to that of the IS.
# platelet aggregation = assay: In vivo antiplatelet activity after intravenous injection; parameters: species or system male New Zealand (NZ) white rabbits
# Experimental: FIG. 9 presents platelet activities of male NZ white rabbits following IV injection of (S)-clopNPT as described in Example X.
# The antiplatelet activity of the mixed disulfide conjugates of clopidogrel was determined using male NZ white rabbits (1.2-1.25 kg).
# To prepare intravenous solution, (S)-clopNPT was dissolved at 0.7 mg/ml in a mixture of N,N-dimethylacetamide (DMA), polyethylene glycol (PEG) 400, and saline at 5, 15 and 80 (v/v) ratio. The male NZ white rabbits were dosed at 2 mg/kg of (S)-clopNPT using two different methods. In Method 1, the intravenous solution was first mixed with 5 mM glutathione. After an incubation of 15 min at 37° C. to activate (S)-clopNPT, the mixture was intravenously injected to the rabbit via the jugular vein. In Method 2, the male NZ white rabbit was fed with 5 ml of Readisorb glutathione solution once daily for three days to increase cellular glutathione concentrations. On the third day, (S)-clopNPT dissolved in DMA/PEG400/saline was injected intravenously to the Readisorb-treated rabbit. As a negative control, (S)-clopidogrel was dosed intravenously to a male NZ white rabbit at 2 mg/kg as well. Prior to and 1 and 2 hours after dosing (S)-clopNPT, whole blood was drawn from the carotid artery into a plastic syringe containing 3.7% sodium citrate as the anticoagulant (1:10 volume ratio of citrate to blood). A whole blood cell count was determined with a Medonic CA620 hematology analyzer (Clinical Diagnostic Solutions, Inc., Plantation, Fla., USA). Platelet-rich plasma (PRP), the supernatant present after centrifugation of whole blood at 100×g for 10 min, was diluted with platelet-poor plasma (PPP) to achieve a platelet count of approximately 300,000/μl. […] Platelet aggregation was assessed by established nephelometric methods with the use of a 4-channel aggregometer (BioData PAP-4; BioData Corp., Horsham, Pa., USA) by recording the increase in light transmission through a stirred suspension of PRP maintained at 37° C. […]
formation of the AM (in words) [3],Km [4] [µM],SMILES,further results
,,"N[C@@H](CCC(=O)N[C@@H](CS)C(=O)NCC(=O)O)C(=O)O [GSH, glutathione, reference compound]",effect on platelet aggregation [1]: no effect on platelet aggregation; Km [2]: 300 µM
No AM was observed,30,"Cc1cc(S)c(C)o1 [DFT, 2,5-dimethylfuran-3-thiol]",
,,COC(=O)C(c1ccccc1Cl)N1CCC(SSc2ncccc2[N+](=O)[O-])C(=CC(=O)O)C1 [(S)-clopNPT],"inhibition of platelet activity (platelet aggregation; 2 mg/kg IV, Readisorb-treated rabbit, within one hour of IV injection): ~70%; inhibition of platelet aggregation (platelet aggregation; 2 mg/kg IV, dosed with glutathione or to Readisorb glutathione treated rabbit): more than 50%"
No AM was observed,23,"Sc1ccc(Cl)nn1 [CPT, 6-chloropyridazine-3-thiol]",
,,"COC(=O)[C@H](c1ccccc1Cl)N1CCc2sccc2C1 [(S)-clopidogrel, (+)-(S)-methyl 2-(2-chlorophenyl)-2-(6,7-dihdrothieno[3,2-c]pyridine-5(4H)-yl)acetate, reference compound]","inhibition of platelet aggregation (in words) (platelet aggregation; 2 mg/kg intravenously, blood 1 and 2 hours after dosing, 10 μM ADP): did not inhibit platelet aggregation"
No AM was observed,51,"O=[N+]([O-])c1cccnc1S [NPT, 3-nitropyridine-2-thiol]",
